Holding throughout (assay): NCI anticancer screen, dose series, 48 h
Experiment [1] relates to ACHN renal.
Experiment [2] relates to CAKI-1 renal.
Experiment [3] concerns RXF 393 renal.
The subject of experiment [4] is NCI-H460 lung.
Experiment [5] has as its system T-47D breast.
In experiment [6] the test system is SK-MEL-2 melanoma.
Experiment [7] has as its system HL-60(TB) leukemia.
The test system of experiment [8] is PC-3 prostate.
The subject of experiment [9] is A498 renal.
In experiment [10] the test system is UACC-257 melanoma.
In experiment [11] the test system is LOX IMVI melanoma.
The test system of experiment [12] is HOP-92 NSCLC.
Experiment [13] has as its system M14 melanoma.
The subject of experiment [14] is HOP-62 NSCLC.
Experiment [15] concerns UACC-62 melanoma.
The subject of experiment [16] is 786-0 renal.

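Grown in 96-well plates, cells were treated for 48 hours with each compound at five concentrations. Insufficient inhibition: endpoint recorded as highest concentration tested. TGI denotes the concentration required for complete inhibition of growth.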

As to `C[C@]12CC/C(=N\O)C=C1CC[C@@H]1[C@@H]2CC[C@]2(C)C(=N/O)/C(=C/c3ccc([N+](=O)[O-])cc3)C[C@@H]12`, the TGI is above 100 µM in experiment [1]; 6.41 µM in experiment [2]; above 100 µM in [3]; above 100 µM in [4]; 3.69 µM in [5]; 17.1 µM in [6]. Further, the TGI in experiment [7] was determined as 8.91 µM; in experiment [8], 34.5 µM; in [9] it was 45.4 µM; in experiment [10], 33.9 µM; in experiment [11] it was 19.3 µM; in [12] it was 22.1 µM. In addition, the TGI in experiment [13] is 16 µM; in experiment [14] it was above 100 µM; in experiment [15], 14.6 µM; in experiment [16], 27.7 µM.
As to `CC(=O)O[C@H]1/C(=C/c2ccncc2)C[C@H]2[C@@H]3CC=C4C[C@@H](N5CCCC5)CC[C@]4(C)[C@H]3CC[C@]12C`, the TGI stood at 27.7 µM in experiment [1]; 27.9 µM in experiment [2]; 20.4 µM in [3]; 24.8 µM in [4]; 29.3 µM in experiment [5]; 32.1 µM in experiment [6]. Further, the TGI in experiment [7] came out at 26.1 µM; in experiment [8], 26.6 µM; in [9], 30.9 µM; in experiment [10] it was 6.42 µM; in experiment [11], 6.82 µM; in [12], 19.8 µM. Also, the TGI stood at 23.8 µM in [13], 30.4 µM in experiment [14], 27.5 µM in experiment [15] and 10.3 µM in experiment [16].
Take `Cc1ccc(N=Nc2ccc(O)c(CN(C)C)c2)cc1`: the TGI in experiment [1] turned out to be 41.8 µM; in [2] it was 61.3 µM; in experiment [3], 34.2 µM; in [4], 33.8 µM; in experiment [5] it was 39.5 µM; in experiment [6], 37.7 µM. For the same molecule, the TGI was 41.3 µM in experiment [7]; 54.7 µM in experiment [8]; 40.2 µM in experiment [9]; 32.3 µM in experiment [10]; 28.6 µM in experiment [11]; 67.7 µM in [12]. In addition, the TGI in experiment [13] worked out at 41.6 µM; in [14], 26.3 µM; in experiment [15], 44.3 µM; in [16], 54.7 µM.
`COC(CC1(/C=C/O[Si](C(C)C)(C(C)C)C(C)C)C(=O)N(C)c2ccccc21)OC` (stereo not given): the TGI in [1], in [2], in experiment [3], in [4], in experiment [5] and in [6] was above 100 µM each time. Also, the TGI in experiment [7], in experiment [8], in experiment [9], in [10], in experiment [11] and in [12] was above 100 µM throughout. Besides, the TGI was above 100 µM in experiment [13], above 100 µM in [14], above 100 µM in experiment [15] and 71.6 µM in experiment [16].
For `CCOC(=O)CSc1nnc2cc(CN3CCCC3)c(-c3ccc(Cl)cc3)nn12`, the TGI in experiment [1], in [2], in experiment [3], in experiment [4], in experiment [5] and in experiment [6] was above 100 µM in each case. The TGI in experiment [7], in [8], in [9], in experiment [10], in [11] and in experiment [12] was above 100 µM in each case. Besides, the TGI in experiment [13], in [14], in experiment [15] and in [16] was above 100 µM in each case.

Values taken from PubChem BioAssay (NCI).
